{
  "source": "patent US9969766B2",
  "about": "“20(R)-ginsenoside Rg3 polyacylated derivatives, preparation and application thereof” (priority 2014, dated 2018)",
  "settings_in_all_cases": "po × 14bid",
  "key": {"[1]": {"system": "mouse melanoma B16 cells", "assay": "Mouse melanoma B16 tail vein inoculation, lung metastasis", "description": "(§1) human breast cancer Bcap-37 model, human lung cancer A549 model, human intestinal cancer LOVO model, human stomach cancer MGC model and human liver cancer QGY model, with tumor cell lines being of the second generation or more, mouse B16 melanoma cell line, mouse Lewis lung cancer model, mouse sarcoma s180 model, all passaged and preserved in Pharmacological Division of Shanghai Institute of Pharmaceutical Industry. 3. Experiment Animals Origins: nude mice, 6-week old, 18-22 g/mouse, provided by Laboratory Animal Center of Chinese Academy of Sciences, Shanghai Branch, with certification No. 2001A032. C57BL/6 mice and Kunming mice, 18-22 g/mouse, provided by Laboratory Animal Center of Chinese Academy of Sciences, Shanghai Branch, with certification SYXK (Shanghai) 2004-0015. Gender: male or female, the same gender for each batch in experiment Animal numbers: 10 mice and 10 nude mice for each of positive control group and test group in experiment, and 20 for negative control group. 4. Experiment Design Dose Settings: doses for 20(R)-ginsenoside Rg3 octo-acetate, 20(R)-ginsenoside Rg3 octo-n-butyrate and 20(R)-ginsenoside Rg3 octo-n-propionate were set as high-dose group (0.3 mg/kg/d), medium-dose group (0.06 mg/kg/d), and low-dose group (0.012 mg/kg/d). Dosage regimen: oral administration, twice daily. human tumor model and cell-inoculated mouse model: po×14 bid; mouse tumor-inoculated model: po×10 bid. Control Trial: negative control group: given with the same volume of 5% CMC-Na as the test group, and the same dosage regimen as the test group. positive control group: Cyclophosphamide CTX 30 mg/kg, MMC 2 mg/kg and 5Fu 30 mg/kg by intraperitoneal or intravenous administration, once daily, for seven consecutive days. 5. Experiment Method and Key Steps 5.1 Anti-Tumor Test 5.1.1 Subcutaneous Inoculation Model"}, "[2]": {"system": "human breast cancer Bcap-37 cells", "assay": "Human breast cancer Bcap-37 subcutaneous inoculation in nude mice", "description": "as §1, with “Cyclophosphamide CTX 30 mg/kg, MMC 2 mg/kg and 5Fu 30 mg/kg by intraperitoneal or intravenous administration, once daily, for seven consecutive days.” left out\nTumor cells of vigorous growth stage were taken under sterile condition and made into cell suspensions of about 1-2×10^7/ml by homogenization, the suspensions were inoculated subcutaneously at 0.2 ml/mouse in host mice and repeated on the next day according to the experiment design, the animals in each group were slaughtered after about three weeks, the tumors were collected and weighed, and the tumor inhibition rates were calculated according to the following equation: tumor inhibition rate %=[(average tumor weight of control group-average tumor weight of treatment group)/average tumor weight of control group]×100%\nThe same operation was repeated in human tumor xenograft model, except that the feed, packing, cage and contact instruments were all sterilized under high pressure before use and the nude mice were fed in a laminar flow rack. The tumors and tumor-bearing animal weight gains were dynamically measured (tumor size measured using caliper: long diameter/a, short diameter/b, and tumor bulk=a×b^2/2)."}, "[3]": {"system": "human liver cancer QGY cells", "assay": "Human liver cancer QGY liver in-situ inoculation, survival", "description": "as §1\nUnder sterile condition, the in vivo passage of the second generation of QGY tumor source of vigorous growth stage was prepared into cell suspensions of about 1-2×10^7/ml by homogenization (1:6), and the homogenates were filtered using 100-mesh stainless steel screen, getting ready for use. The nude mice were disinfected routinely and anaesthetized and cut at the xiphoid in the middle of the abdominal cavity to expose the liver, the cell suspensions (0.05 ml) were injected into liver parenchyma using imported 28 ga ½ ml syringes, the abdominal cavity was closed and then sutured layer by layer. The nude mice were fed in the laminar flow rack, with all the feed, packing, cage and contact instruments being sterilized under high pressure before use."}, "[4]": {"system": "mouse sarcoma S180 cells", "assay": "Mouse sarcoma S180 metastasis model", "description": "as §1"}},
  "data": [
    {"smiles": "CC(=O)OC[C@H]1O[C@@H](OC2CC[C@]3(C)C(CC[C@@]4(C)C3C[C@H](OC(C)=O)C3C([C@@](C)(O)CCC=C(C)C)CC[C@@]34C)C2(C)C)[C@H](OC2O[C@H](COC(C)=O)[C@@H](OC(C)=O)[C@H](OC(C)=O)[C@H]2OC(C)=O)[C@@H](OC(C)=O)[C@@H]1OC(C)=O", "note": "(stereo partly drawn) [Rg3-octo-acetate, 20 (R)-ginsenoside Rg3 octaacetate]", "values": [
      {"measurement": "Anti-metastasis rate %", "setting": "[1]; 0.012 mg/kg/d", "value": 50.90, "unit": "%"},
      {"measurement": "Lung clone numbers (mice) X ± SD", "setting": "[1]; 0.012 mg/kg/d", "value": "23.62 ± 7.0"},
      {"measurement": "Anti-metastasis rate %", "setting": "[1]; 0.06 mg/kg/d", "value": 63.87, "unit": "%"},
      {"measurement": "Lung clone numbers (mice) X ± SD", "setting": "[1]; 0.06 mg/kg/d", "value": "17.38 ± 7.1"},
      {"measurement": "Anti-metastasis rate %", "setting": "[1]; 0.3 mg/kg/d", "value": 79.98, "unit": "%"},
      {"measurement": "Lung clone numbers (mice) X ± SD", "setting": "[1]; 0.3 mg/kg/d", "value": "9.63 ± 7.9"},
      {"measurement": "Tumor inhibition rate %", "setting": "[2]; 0.012 mg/kg/d", "value": 47.93, "unit": "%"},
      {"measurement": "Tumor weight (g) X ± SD", "setting": "[2]; 0.012 mg/kg/d", "value": "0.672 ± 0.07", "unit": "g"},
      {"measurement": "Tumor inhibition rate %", "setting": "[2]; 0.06 mg/kg/d", "value": 59.69, "unit": "%"},
      {"measurement": "Tumor weight (g) X ± SD", "setting": "[2]; 0.06 mg/kg/d", "value": "0.520 ± 0.08", "unit": "g"},
      {"measurement": "Tumor inhibition rate %", "setting": "[2]; 0.3 mg/kg/d", "value": 68.98, "unit": "%"},
      {"measurement": "Tumor weight (g) X ± SD", "setting": "[2]; 0.3 mg/kg/d", "value": "0.400 ± 0.09", "unit": "g"},
      {"measurement": "Animal body weight (g) Start", "setting": "[3]; 0.012 mg/kg/d", "value": 19.1, "unit": "g"},
      {"measurement": "Animal body weight (g) end", "setting": "[3]; 0.012 mg/kg/d", "value": 25.2, "unit": "g"},
      {"measurement": "Average survival (d) X ± SD", "setting": "[3]; 0.012 mg/kg/d", "value": "37.26 ± 4.5", "unit": "days"},
      {"measurement": "Life extension rate T/C × %", "setting": "[3]; 0.012 mg/kg/d", "value": 159.58, "unit": "%"},
      {"measurement": "Animal body weight (g) Start", "setting": "[3]; 0.06 mg/kg/d", "value": 19.1, "unit": "g"},
      {"measurement": "Animal body weight (g) end", "setting": "[3]; 0.06 mg/kg/d", "value": 24.3, "unit": "g"},
      {"measurement": "Average survival (d) X ± SD", "setting": "[3]; 0.06 mg/kg/d", "value": "38.90 ± 4.1", "unit": "days"},
      {"measurement": "Life extension rate T/C × %", "setting": "[3]; 0.06 mg/kg/d", "value": 166.59, "unit": "%"},
      {"measurement": "Animal body weight (g) Start", "setting": "[3]; 0.3 mg/kg/d", "value": 19.3, "unit": "g"},
      {"measurement": "Animal body weight (g) end", "setting": "[3]; 0.3 mg/kg/d", "value": 24.8, "unit": "g"},
      {"measurement": "Average survival (d) X ± SD", "setting": "[3]; 0.3 mg/kg/d", "value": "42.49 ± 5.0", "unit": "days"},
      {"measurement": "Life extension rate T/C × %", "setting": "[3]; 0.3 mg/kg/d", "value": 181.98, "unit": "%"},
      {"measurement": "Anti-metastasis rate %", "setting": "[4]; 0.012 mg/kg/d", "value": 51.50, "unit": "%"},
      {"measurement": "Lung clone numbers (mice) X ± SD", "setting": "[4]; 0.012 mg/kg/d", "value": "1.43 ± 7.1"},
      {"measurement": "Anti-metastasis rate %", "setting": "[4]; 0.06 mg/kg/d", "value": 65.80, "unit": "%"},
      {"measurement": "Lung clone numbers (mice) X ± SD", "setting": "[4]; 0.06 mg/kg/d", "value": "1.01 ± 7.2"},
      {"measurement": "Anti-metastasis rate %", "setting": "[4]; 0.3 mg/kg/d", "value": 78.94, "unit": "%"},
      {"measurement": "Lung clone numbers (mice) X ± SD", "setting": "[4]; 0.3 mg/kg/d", "value": "0.62 ± 7.3"}
    ]}
  ]
}
